Experimental findings from ChEMBL document CHEMBL1201862, “PubChem BioAssay data set” (2004) are described below.

What all share (assay): DTP human tumour cell line panel, 48 h
Assay [1] concerns Malme-3M.
Assay [2] deals with 786-0.
Assay [3] concerns M14.
Assay [4] has as its system SF-539.
In assay [5] the test system is ACHN.
Assay [6] relates to SNB-19.
Assay [7] concerns OVCAR-4.
For assay [8], the system named is NCI-H23.
For assay [9], the system named is EKVX.
In assay [10] the test system is UACC-257.
Assay [11] has as its system NCI-H226.
For assay [12], the system named is SR.
Assay [13] relates to OVCAR-3.
Assay [14] concerns IGROV-1.
The test system of assay [15] is NCI-H522.
Assay [16] concerns CAKI-1.
The subject of assay [17] is SNB-75.
The subject of assay [18] is HT-29.
Assay [19] has as its system HCT-116.
The test system of assay [20] is CCRF-CEM.

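Growth conditions: 96-well plates. Treatment: test compound, 48 hours, 5 concentrations. Analysis: linear interpolation between bracketing concentrations; unreached endpoints set to highest concentration. The concentration for 50% growth inhibition is given as GI50.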 The source made the active and inactive calls. Cut-off read from the data, not from the text of the source: active = GI50 up to about 1.1 µM and inactive = higher.

By GI50 is commonly meant the concentration that inhibits growth by half.

`C=C(C)C(=O)O[C@H]1CC2(CO)O[C@@H]2CC/C(COC(C)=O)=C/C2OC(=O)C(=C)[C@@H]21` (stereo not given in full): the GI50 is 23.4 µM (inactive) in [1]; 20.2 µM (inactive) in assay [2]; 21 µM (inactive) in assay [3]; 74.8 µM (inactive) in assay [4]; 26.1 µM (inactive) in assay [5]; > 100 µM (inactive) in assay [6]. Besides, the GI50 is 39.6 µM (inactive) in [7]; 42.2 µM (inactive) in [8]; > 100 µM (inactive) in assay [9]; 20 µM (inactive) in assay [10]; > 46.1 µM (inactive) in [11]; 16.9 µM (inactive) in assay [12]. The GI50 in assay [13] is 30.2 µM (inactive); in assay [14], > 64.6 µM (inactive); in [15], 16.4 µM (inactive); in assay [16] it was 28.8 µM (inactive); in assay [17] it was 59.7 µM (inactive); in assay [18], 34.8 µM (inactive). In addition, the GI50 is 18.2 µM (inactive) in assay [19] and 15.7 µM (inactive) in [20].

In the case of `CCCN(CCc1ccc(-c2ccccc2)cc1)CCc1ccc2nn[nH]c2c1`, the GI50 in [1] was 8.79 µM (inactive); in [2] it was 11.7 µM (inactive); in assay [3] it was 4.28 µM (inactive); in [4], 10.7 µM (inactive); in assay [5], 12.8 µM (inactive); in [6], 13.1 µM (inactive). For the same compound, the GI50 is 14.6 µM (inactive) in assay [7]; 12.2 µM (inactive) in assay [8]; 13.5 µM (inactive) in assay [9]; 4.84 µM (inactive) in [10]; 15.8 µM (inactive) in [11]; 3.74 µM (inactive) in assay [12]. The GI50 in [13] was 12.5 µM (inactive); in assay [14], 10 µM (inactive); in [15] it was 11.8 µM (inactive); in assay [16] it was 12.6 µM (inactive); in assay [17] it was 12.3 µM (inactive); in assay [18], 11.5 µM (inactive). The values for the GI50 in assay [19] and in assay [20] were 4.66 µM (inactive) and 4.26 µM (inactive), respectively.

In the case of `COc1cc2cc(OC)c3cc4c(cc3c2c(OC)c1OC)OCO4`, the GI50 was 52.4 µM (inactive) in assay [1]; 27.9 µM (inactive) in assay [2]; 19.7 µM (inactive) in [3]; 31.6 µM (inactive) in [4]; 52.5 µM (inactive) in [5]; > 100 µM (inactive) in assay [6]. Besides, the GI50 was 39.4 µM (inactive) in assay [7]; 39.8 µM (inactive) in assay [8]; 50.6 µM (inactive) in assay [9]; 34.9 µM (inactive) in [10]; > 100 µM (inactive) in assay [11]; 18.5 µM (inactive) in assay [12]. The GI50 was 41.5 µM (inactive) in assay [13]; > 66.8 µM (inactive) in assay [14]; 18 µM (inactive) in assay [15]; 33 µM (inactive) in assay [16]; 7.55 µM (inactive) in [17]; 10.9 µM (inactive) in assay [18]. The GI50 in [19] is 38.2 µM (inactive); in assay [20], 15 µM (inactive).

As for `Cc1cc(C)c(-n2c(C)c(C)c(C#N)c2N)c(C)c1`, the GI50 in assay [1] is 25.1 µM (inactive); in [2], 41 µM (inactive); in assay [3] it was 27.5 µM (inactive); in [4], 23.4 µM (inactive); in assay [5], 31.3 µM (inactive); in [6] it was 87.7 µM (inactive). Besides, the GI50 is 29 µM (inactive) in [7]; 39 µM (inactive) in assay [8]; 27.5 µM (inactive) in [9]; 18.1 µM (inactive) in assay [10]; 25 µM (inactive) in assay [11]; 11 µM (inactive) in assay [12]. Moreover, the GI50 in assay [13] was 24.2 µM (inactive); in assay [14], 37 µM (inactive); in [15] it was 21 µM (inactive); in [16], 43.3 µM (inactive); in assay [17], 31.9 µM (inactive); in assay [18] it was 30.5 µM (inactive). The GI50 in assay [19] was 18.8 µM (inactive); in [20], 15.3 µM (inactive).

Turning to `O=C(/C=C/c1ccc(Br)cc1)c1ccc(NCc2nc3ccccc3[nH]2)cc1`, the GI50 in assay [1] was 25 µM (inactive); in assay [2], 5.25 µM (inactive); in [3] it was 17.9 µM (inactive); in assay [4] it was 10 µM (inactive); in [5], 17.5 µM (inactive); in assay [6], 8.79 µM (inactive). The GI50 was 14.4 µM (inactive) in assay [7]; 4.95 µM (inactive) in [8]; > 30.2 µM (inactive) in assay [9]; 3.81 µM (inactive) in assay [10]; 10.9 µM (inactive) in assay [11]; 5.69 µM (inactive) in [12]. The GI50 is 4.61 µM (inactive) in assay [13]; 17.3 µM (inactive) in assay [14]; 3.41 µM (inactive) in assay [15]; 9.68 µM (inactive) in assay [16]; 4.34 µM (inactive) in [17]; 4.65 µM (inactive) in assay [18]. In addition, the figures for the GI50 in [19] and in assay [20] were 4.66 µM (inactive) and 4.76 µM (inactive), respectively.

As to `Cn1c(-c2ccc(C=O)o2)ccc1-c1ccc(C=O)o1`, the GI50 in assay [1] is 31.7 µM (inactive); in [2] it was 61.1 µM (inactive); in assay [3] it was 31 µM (inactive); in assay [4], 34.5 µM (inactive); in assay [5] it was 31.7 µM (inactive); in [6], 54.8 µM (inactive). For the same compound, the GI50 in assay [7] is 53.1 µM (inactive); in assay [8] it was 45.7 µM (inactive); in [9] it was 54.1 µM (inactive); in assay [10] it was 51.4 µM (inactive); in assay [11], 76.4 µM (inactive); in [12], 30.9 µM (inactive). Besides, the GI50 is 26.2 µM (inactive) in assay [13]; 36.9 µM (inactive) in assay [14]; 1.68 µM (inactive) in assay [15]; 12.5 µM (inactive) in assay [16]; 39.5 µM (inactive) in assay [17]; 36.1 µM (inactive) in assay [18]. Further, the GI50 was 18.4 µM (inactive) in assay [19] and > 100 µM (inactive) in assay [20].

`CCCC(O)[C@@H](O)c1ccc2c(c1O)C(=O)c1c(OC)cccc1C2=O` (stereo not given in full): the GI50 in assay [1] is 40.7 µM (inactive); in assay [2], 37.5 µM (inactive); in assay [3], 31.6 µM (inactive); in assay [4] it was 24.2 µM (inactive); in assay [5], 34.4 µM (inactive); in assay [6], 80.4 µM (inactive). Further, the GI50 in assay [7] was 25 µM (inactive); in assay [8], 36.6 µM (inactive); in [9], 55.1 µM (inactive); in assay [10], 29.9 µM (inactive); in [11] it was 27.3 µM (inactive); in [12] it was 26.4 µM (inactive). For the same compound, the GI50 in assay [13] is 34.8 µM (inactive); in [14] it was 30.7 µM (inactive); in assay [15], 16.1 µM (inactive); in assay [16], 27.8 µM (inactive); in assay [17], 47 µM (inactive); in assay [18] it was 38.9 µM (inactive). Also, the GI50 in assay [19] was 38.5 µM (inactive); in assay [20] it was 31.3 µM (inactive).

In the case of `C#CCCCC(=O)N(C(=O)C[S+]([O-])CC)c1ccccc1` (stereo not given), the GI50 in [1], in assay [2], in assay [3], in assay [4], in assay [5] and in [6] was > 100 µM (inactive) each time. In addition, the GI50 in [7], in assay [8], in assay [9], in assay [10], in assay [11] and in [12] was > 100 µM (inactive) each time. The GI50 in assay [13], in assay [14], in assay [15], in assay [16], in assay [17] and in assay [18] was > 100 µM (inactive) each time. In addition, the GI50 in [19] and in assay [20] was > 100 µM (inactive) in each case.

Consider `NC(=O)c1nnsc1N/N=C/c1ccc([N+](=O)[O-])cc1`, for which the GI50 in assay [1] was > 100 µM (inactive); in assay [2], 41 µM (inactive); in assay [3], > 100 µM (inactive); in assay [4], > 100 µM (inactive); in assay [5], > 100 µM (inactive); in assay [6] it was > 100 µM (inactive). Besides, the GI50 is > 100 µM (inactive) in [7]; > 100 µM (inactive) in [8]; > 100 µM (inactive) in assay [9]; > 100 µM (inactive) in assay [10]; > 100 µM (inactive) in assay [11]; 33.9 µM (inactive) in [12]. Besides, the GI50 in assay [13] is 55.2 µM (inactive); in assay [14] it was > 100 µM (inactive); in [15], > 100 µM (inactive); in [16] it was > 100 µM (inactive); in assay [17] it was > 100 µM (inactive); in assay [18], > 100 µM (inactive). Moreover, the GI50 in assay [19] and in assay [20] was > 100 µM (inactive) each time.

Regarding `S=C=NCc1ccccc1` [BENZYL ISOTHIOCYANATE], the GI50 in [1] is 3.1 µM (inactive); in [2] it was 0.422 µM (active); in assay [3] it was 1.67 µM (inactive); in [4] it was 1.82 µM (inactive); in assay [5], 3.99 µM (inactive); in assay [6] it was 4.71 µM (inactive). For the same compound, the GI50 is 3.8 µM (inactive) in [7]; 3.81 µM (inactive) in assay [8]; 14.6 µM (inactive) in assay [9]; 3.15 µM (inactive) in [10]; 10.1 µM (inactive) in assay [11]; 0.794 µM (active) in assay [12]. Besides, the GI50 is 2.75 µM (inactive) in assay [13]; 2.51 µM (inactive) in assay [14]; 1.22 µM (inactive) in assay [15]; 1.85 µM (inactive) in [16]; 4.27 µM (inactive) in [17]; 2.47 µM (inactive) in assay [18]. Also, the results for the GI50 in [19] and in [20] were 0.604 µM (active) and 0.454 µM (active), respectively.
